{"source": "patent US12403091B2", "about": "“Delivery system” (SMARTECH TOPICAL, INC., priority 2016, dated 2025)", "settings": "same subject; Celebrex initiated and stopped after 3 days"}
{"smiles": "Cc1ccc(-c2cc(C(F)(F)F)nn2-c2ccc(S(N)(=O)=O)cc2)cc1", "note": "[Celebrex, celecoxib]", "values": [{"measurement": "Side effects leading to discontinuation", "result": "drowsiness and GI side effects"}]}
